Measured values reported in patent US12398153B2, “Spiro compound serving as ERK inhibitor, and application thereof” (D3 BIO (WUXI) CO., LTD., priority 2019, dated 2025).
Where two headings read alike, the source gives them in different places.

Experiments:
ERK2 kinase = ERK2 kinase (Homo sapiens (Human), UniProt P28482); test: Assay of in vitro kinase activity (33P-ATP filter-binding, MBP substrate); type: biochemical
Method: Assay Example 1. Assay of In Vitro Kinase Activity
The ability of compounds to inhibit ERK2 kinase activity was measured.
20 mM Hepes (pH 7.5), 10 mM MgCl2, 1 mM ethylenebis(oxyethylenenitrilo)tetraacetic acid (EGTA), 0.02% Brij35, 0.02 mg/mL bovine serum albumin (BSA), 0.1 mM Na3VO4, 2 mM dithiothreitol (DTT), 1% DMSO.
The assay compound was dissolved in 100% DMSO to prepare a stock solution of specific concentration. The compound was serially diluted in DMSO solution using Integra Viaflo Assist smart pipette.
• 1) The substrate MBP was prepared in freshly prepared reaction buffer; • 2) ERK2 kinase was added to the above-mentioned MBP solution and mixed gently; • 3) The compound dissolved in 100% DMSO was added to the kinase reaction system using ultrasound technology (Echo550; nanoliter range), and the mixture was incubated at room temperature for 20 minutes; • 4) ^33P-ATP (specific concentration of […]) was added to the reaction system, and the reaction was started at this time; • 5) The mixture was incubated at room temperature for 2 hours; • 6) The amount of radioactivity was detected by filter-binding method; • 7) ERK2 kinase activity was calculated as the ratio of the remaining kinase activity in the assay sample to the kinase activity of the control group (treated by DMSO). Curve was fitted using Prism (GraphPad software) and IC50 values were calculated. 5.

HT29 tumor cells = test: In vitro cell proliferation inhibition assay (CellTiterGlo); type: cell-based
Method: Assay Example 2. In Vitro Cell Proliferation Inhibition Assay
The ability of compounds to inhibit the proliferation of HT29 tumor cells was measured.
The assay compound was dissolved in 100% DMSO to prepare 10 mM stock solution.
• 1) UV light of a biological safety cabin was turned on, and 30 minutes were counted down; • 2) In a 37° C. water bath, RPMI1640 medium and trypsin were preheated; • 3) After completion of the UV irradiation, the biological safety cabin was opened. The preheated medium, trypsin and phosphate buffered saline (PBS), etc. were wiped with alcohol and placed in the biological safety cabin; • 4) HT29 cells were removed from the incubator, and the old medium was removed in biological safety cabin. 10 ml of PBS was added. The mixture was shaken gently, and then PBS was removed; • 5) 1.5 ml of preheated 0.25% trypsin was added. The culture vessel was shaken horizontally so that the trypsin evenly covered the cells at the bottom, and placed in an incubator for 2 minutes; • 6) Cell digestion was stopped with complete medium, and the cell suspension was pipetted to homogeneity and counted; • 7) According to the result of cell counting, the density of cell suspension was adjusted to 1500 cells per well, and the cell suspension was seeded at 50 μl per well; • 8) The stock solution of compounds was serially diluted in DMSO solution, and compounds were added to cell plate using Tecan;
9) The compound-added cell plate and CellTiterGlo were equilibrated at room temperature, and 25 microliters of CellTiterGlo was then added to each well. The cell plate was shaken for 1-2 minutes and then allowed to stand for 10 minutes. The signal value was then detected. The data were analyzed using XL-Fit, and the IC50 of each compound was calculated.

[1] = In vivo DMPK assay in mouse; settings: female BALB/c mice; for Oral DNAUC (AUCPO/Dose) / Cmax: 3 mg/kg orally; for clearance / Vd / bioavailability / half-life / Cmax: mouse, plasma; for clearance / Vd: iv, 1 mg/kg intravenously; for clearance: read-out: Cl (clearance rate); for Vd: read-out: Vdss (distribution volume); for bioavailability / Cmax: po; for bioavailability: 1 mg/kg intravenously and 3 mg/kg orally, read-out: F % (oral bioavailability); for half-life: single administration, read-out: T1/2 (half-life) (converted); for Cmax: read-out: Cmax (maximum concentration)
Text: Assay Example 3. Assay of In Vivo DMPK
In vivo DMPK assay in mouse
Female BALB/c mice were used as assay animals to determine the blood concentration of compounds and evaluate the pharmacokinetic behavior after a single administration.
Eight healthy adult female BALB/c mice were selected, wherein 4 mice were in the intravenous injection group and 4 mice were in the oral group. The vehicle in the intravenous injection group was 5% DMSO+95% (20% HP-β-CD). The compound to be assayed was mixed with an appropriate amount of vehicle for intravenous injection, vortexed and sonicated to prepare a clear solution of 0.5 mg/mL. The clear solution was filtered by a microporous membrane, and then ready for use. The vehicle in the oral group was 5% DMSO+95% (20% HP-β-CD). The compound to be assayed was mixed with the vehicle, vortexed and sonicated to prepare a solution of 0.3 mg/mL. Mice were administered 1 mg/kg intravenously or 3 mg/kg orally, and then whole blood was collected for a certain period. Plasma was prepared. The drug concentration was analyzed by LC-MS/MS method, and the pharmacokinetic parameters were calculated by Phoenix WinNonlin software (Pharsight, USA).
Note: DMSO: dimethyl sulfoxide; HP-β-CD: hydroxypropyl-β-cyclodextrin.

[2] = system: human colon cancer HCT-116 cells; test: In vivo efficacy, subcutaneous xenograft tumor of human colon cancer HCT-116 cells in BALB/c nude mouse; settings: 15 mg/kg, PO, QD
Method: Assay Example 4. Assay of In Vivo Efficacy of Subcutaneous Xenograft Tumor of Human Colon Cancer HCT-116 Cells in BALB/c Nude Mouse Model
The anti-tumor effect of WX007 was evaluated using a subcutaneous xenograft tumor model of human colon cancer HCT-116 cells in nude mouse.
• Species: mouse • Strain: BALB/c nude mouse • Age: 6-8 weeks old • Gender: female • Weight: 17-23 grams • Vendor: Laboratory Animal Management Department, Shanghai Institute for Biomedical and Pharmaceutical Technologies • Animal certificate number: 20180006020214 3. Assay Procedure: • 1) Assay cells and culture: Human colon cancer HCT-116 cells were cultured in monolayer in vitro. […] When the cell saturation was 80%-90% and the amount reached the requirement, the cells were harvested, counted, and inoculated; • 2) Tumor tissue inoculation and grouping: 0.2 mL (5×10^6) of HCT-116 cells were subcutaneously inoculated into the right armpit of each mouse. […]
• 3) Daily observation of assay animals: The development of this assay protocol and any modifications were evaluated and approved by the Institutional Animal Care and Use Committee (IACUC). […] Animals were monitored daily for health and death. […] The compound was formulated once a week. • 5) Tumor measurement and assay indicator: • a) Tumor diameter was measured twice a week with a vernier caliper. […]

ERK2 kinase, sequence (P28482 whole entry): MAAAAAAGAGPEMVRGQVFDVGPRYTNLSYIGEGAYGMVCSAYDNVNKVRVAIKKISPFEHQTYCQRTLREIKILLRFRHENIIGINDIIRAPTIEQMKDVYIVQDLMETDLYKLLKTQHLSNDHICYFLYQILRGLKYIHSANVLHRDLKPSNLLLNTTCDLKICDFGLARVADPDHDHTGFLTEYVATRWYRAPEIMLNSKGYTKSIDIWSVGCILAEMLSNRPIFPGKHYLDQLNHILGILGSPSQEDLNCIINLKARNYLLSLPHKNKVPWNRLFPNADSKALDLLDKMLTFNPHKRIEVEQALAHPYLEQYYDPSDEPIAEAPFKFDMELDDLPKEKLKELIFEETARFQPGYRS

Structure (SMILES) | IC50 (ERK2 kinase) | IC50 (HT29 tumor cells) | IC50 (HT29 tumor cells; Homo sapiens, HT-29) | Oral DNAUC (AUCPO/Dose) [1] | clearance [1] | Vd [1] | bioavailability [1] | half-life [1] | Cmax [1] | TGI (inhibition rate of tumor growth) ([2]; 18th day, HCT-116 xenograft in nude mouse) | Body weight of assay animals ([2]; to the 18th day)
Cn1nccc1Nc1nccc(-c2nc3c(s2)[C@@]2(CCOC2)N(Cc2cccc(Cl)c2)C3=O)n1 [WX001A] | 0.31 nM | 21 nM |  |  |  |  |  |  |  |  | 
Cn1nccc1Nc1nccc(-c2nc3c(s2)C2(CCOCC2)N(Cc2cccc(Cl)c2)C3=O)n1 [WX002] | 0.4 nM |  | 73 nM |  |  |  |  |  |  |  | 
O=C1c2nc(-c3ccnc(NC4CCOCC4)n3)sc2C2(CCOCC2)N1Cc1cccc(Cl)c1 [WX003] | 0.29 nM |  | 69 nM |  |  |  |  |  |  |  | 
Cn1nccc1Nc1nccc(-c2nc3c(s2)C2(COC2)N(Cc2cccc(F)c2)C3=O)n1 [WX004] | 1.1 nM |  | 125 nM |  |  |  |  |  |  |  | 
Cn1nccc1Nc1nccc(-c2nc3c(s2)C2(COC2)N(Cc2cccc(Cl)c2)C3=O)n1 [WX005] | 0.36 nM |  | 49 nM |  |  |  |  |  |  |  | 
Cc1cnc(Nc2ccnn2C)nc1-c1nc2c(s1)C1(COC1)N(Cc1cccc(F)c1)C2=O [WX006] | 0.94 nM |  | 14 nM | 1356 nM · h/mpk | 17.2 mL/min/kg | 1.7 L/kg | 70% | 1.4 h | 1400 nM |  | 
Cc1cnc(Nc2ccnn2C)nc1-c1nc2c(s1)C1(COC1)N(Cc1cccc(Cl)c1)C2=O [WX007] | 0.48 nM |  | 11 nM | 1086 nM · h/mpk | 14.4 mL/min/kg | 1.7 L/kg | 46% | 1.3 h | 595 nM | 62% | did not decrease significantly
